Experimental data as given in PMC9116130 (Biochemical pharmacology, 2020).
Where a SMILES comes first, the peptide text is derived from it. Bridges are numbered along the chain shown (N, C = ends).

Experiments:
[1] = biological target: rNaV1.2 (Rattus norvegicus, UniProt P04775); experiment: Two-electrode voltage-clamp on Xenopus laevis oocytes expressing NaV1.2; conditions: for inhibition at 100 µM: read-out: Maximum % inhibition NaV1.2, peptide at 100 μM
[2] = biological target: mNaV1.6 (Mus musculus, UniProt Q9WTU3); experiment: Two-electrode voltage-clamp on Xenopus laevis oocytes expressing NaV1.6; conditions: for inhibition at 100 µM: read-out: Maximum % inhibition NaV1.6, peptide at 100 μM
Sequence of mNaV1.6 (Q9WTU3 whole entry): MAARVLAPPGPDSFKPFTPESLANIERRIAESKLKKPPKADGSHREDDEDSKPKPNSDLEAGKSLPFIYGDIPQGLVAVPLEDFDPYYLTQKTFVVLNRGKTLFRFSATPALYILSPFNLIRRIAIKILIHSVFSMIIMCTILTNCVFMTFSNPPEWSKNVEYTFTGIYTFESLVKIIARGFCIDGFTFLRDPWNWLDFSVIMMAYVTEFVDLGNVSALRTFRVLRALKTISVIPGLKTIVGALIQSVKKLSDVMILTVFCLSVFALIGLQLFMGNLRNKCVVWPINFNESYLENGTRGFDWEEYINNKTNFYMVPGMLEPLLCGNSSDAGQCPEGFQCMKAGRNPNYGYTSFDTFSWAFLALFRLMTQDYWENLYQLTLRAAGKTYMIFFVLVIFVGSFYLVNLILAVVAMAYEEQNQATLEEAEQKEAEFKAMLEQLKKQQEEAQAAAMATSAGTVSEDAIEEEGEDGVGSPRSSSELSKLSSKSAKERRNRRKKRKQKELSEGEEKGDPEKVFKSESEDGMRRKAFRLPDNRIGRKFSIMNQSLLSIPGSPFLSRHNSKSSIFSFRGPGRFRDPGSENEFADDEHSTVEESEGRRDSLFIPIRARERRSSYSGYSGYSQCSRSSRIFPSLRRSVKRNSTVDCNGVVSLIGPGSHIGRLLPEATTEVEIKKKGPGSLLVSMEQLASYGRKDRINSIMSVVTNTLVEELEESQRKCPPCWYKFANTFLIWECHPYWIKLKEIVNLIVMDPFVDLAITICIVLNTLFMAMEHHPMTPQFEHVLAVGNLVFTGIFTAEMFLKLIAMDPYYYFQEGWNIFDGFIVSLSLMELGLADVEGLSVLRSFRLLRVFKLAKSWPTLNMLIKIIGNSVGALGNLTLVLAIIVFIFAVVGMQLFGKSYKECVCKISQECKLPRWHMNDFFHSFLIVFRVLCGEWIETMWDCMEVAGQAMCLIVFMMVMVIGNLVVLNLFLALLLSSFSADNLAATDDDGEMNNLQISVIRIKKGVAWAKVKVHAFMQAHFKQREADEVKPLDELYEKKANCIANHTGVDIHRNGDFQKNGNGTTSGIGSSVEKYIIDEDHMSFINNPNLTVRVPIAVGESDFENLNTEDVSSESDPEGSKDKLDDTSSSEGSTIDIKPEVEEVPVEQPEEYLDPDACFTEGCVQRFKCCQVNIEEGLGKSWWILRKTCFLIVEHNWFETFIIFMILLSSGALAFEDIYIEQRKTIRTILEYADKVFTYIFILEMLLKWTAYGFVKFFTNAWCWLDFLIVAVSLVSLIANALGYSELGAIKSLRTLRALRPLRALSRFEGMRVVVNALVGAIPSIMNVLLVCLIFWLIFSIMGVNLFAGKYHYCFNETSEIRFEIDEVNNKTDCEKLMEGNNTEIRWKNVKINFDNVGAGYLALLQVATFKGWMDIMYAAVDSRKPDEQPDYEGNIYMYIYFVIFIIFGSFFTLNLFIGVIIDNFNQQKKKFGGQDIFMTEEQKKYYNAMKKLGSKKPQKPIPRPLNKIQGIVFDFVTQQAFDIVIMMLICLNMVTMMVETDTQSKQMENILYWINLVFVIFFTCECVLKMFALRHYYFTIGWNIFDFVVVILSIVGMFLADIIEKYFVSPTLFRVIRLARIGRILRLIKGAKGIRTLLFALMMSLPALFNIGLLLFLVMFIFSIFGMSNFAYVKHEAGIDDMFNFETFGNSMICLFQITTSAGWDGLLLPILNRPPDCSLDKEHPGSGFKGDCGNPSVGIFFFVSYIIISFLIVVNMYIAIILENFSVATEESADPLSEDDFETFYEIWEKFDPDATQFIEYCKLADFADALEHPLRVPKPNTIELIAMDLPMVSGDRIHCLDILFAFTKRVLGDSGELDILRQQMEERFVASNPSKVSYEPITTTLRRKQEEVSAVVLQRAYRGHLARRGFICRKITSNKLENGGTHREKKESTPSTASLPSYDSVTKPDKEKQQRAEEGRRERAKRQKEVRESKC

[3] = biological target: hNaV1.5 (Homo sapiens, UniProt Q14524); experiment: Two-electrode voltage-clamp on Xenopus laevis oocytes expressing NaV1.5; conditions: for inhibition at 100 µM: read-out: Maximum % inhibition NaV1.5
[4] = biological target: rNaV1.4 (Rattus norvegicus, UniProt P15390); experiment: Two-electrode voltage-clamp on Xenopus laevis oocytes expressing NaV1.4; conditions: for inhibition at 100 µM: read-out: Maximum % inhibition NaV1.4, peptide at 100 μM; for Maximum % inhibition NaV1.4: peptide at 100 μM, 100 µM
Sequence of rNaV1.4 (P15390 whole entry): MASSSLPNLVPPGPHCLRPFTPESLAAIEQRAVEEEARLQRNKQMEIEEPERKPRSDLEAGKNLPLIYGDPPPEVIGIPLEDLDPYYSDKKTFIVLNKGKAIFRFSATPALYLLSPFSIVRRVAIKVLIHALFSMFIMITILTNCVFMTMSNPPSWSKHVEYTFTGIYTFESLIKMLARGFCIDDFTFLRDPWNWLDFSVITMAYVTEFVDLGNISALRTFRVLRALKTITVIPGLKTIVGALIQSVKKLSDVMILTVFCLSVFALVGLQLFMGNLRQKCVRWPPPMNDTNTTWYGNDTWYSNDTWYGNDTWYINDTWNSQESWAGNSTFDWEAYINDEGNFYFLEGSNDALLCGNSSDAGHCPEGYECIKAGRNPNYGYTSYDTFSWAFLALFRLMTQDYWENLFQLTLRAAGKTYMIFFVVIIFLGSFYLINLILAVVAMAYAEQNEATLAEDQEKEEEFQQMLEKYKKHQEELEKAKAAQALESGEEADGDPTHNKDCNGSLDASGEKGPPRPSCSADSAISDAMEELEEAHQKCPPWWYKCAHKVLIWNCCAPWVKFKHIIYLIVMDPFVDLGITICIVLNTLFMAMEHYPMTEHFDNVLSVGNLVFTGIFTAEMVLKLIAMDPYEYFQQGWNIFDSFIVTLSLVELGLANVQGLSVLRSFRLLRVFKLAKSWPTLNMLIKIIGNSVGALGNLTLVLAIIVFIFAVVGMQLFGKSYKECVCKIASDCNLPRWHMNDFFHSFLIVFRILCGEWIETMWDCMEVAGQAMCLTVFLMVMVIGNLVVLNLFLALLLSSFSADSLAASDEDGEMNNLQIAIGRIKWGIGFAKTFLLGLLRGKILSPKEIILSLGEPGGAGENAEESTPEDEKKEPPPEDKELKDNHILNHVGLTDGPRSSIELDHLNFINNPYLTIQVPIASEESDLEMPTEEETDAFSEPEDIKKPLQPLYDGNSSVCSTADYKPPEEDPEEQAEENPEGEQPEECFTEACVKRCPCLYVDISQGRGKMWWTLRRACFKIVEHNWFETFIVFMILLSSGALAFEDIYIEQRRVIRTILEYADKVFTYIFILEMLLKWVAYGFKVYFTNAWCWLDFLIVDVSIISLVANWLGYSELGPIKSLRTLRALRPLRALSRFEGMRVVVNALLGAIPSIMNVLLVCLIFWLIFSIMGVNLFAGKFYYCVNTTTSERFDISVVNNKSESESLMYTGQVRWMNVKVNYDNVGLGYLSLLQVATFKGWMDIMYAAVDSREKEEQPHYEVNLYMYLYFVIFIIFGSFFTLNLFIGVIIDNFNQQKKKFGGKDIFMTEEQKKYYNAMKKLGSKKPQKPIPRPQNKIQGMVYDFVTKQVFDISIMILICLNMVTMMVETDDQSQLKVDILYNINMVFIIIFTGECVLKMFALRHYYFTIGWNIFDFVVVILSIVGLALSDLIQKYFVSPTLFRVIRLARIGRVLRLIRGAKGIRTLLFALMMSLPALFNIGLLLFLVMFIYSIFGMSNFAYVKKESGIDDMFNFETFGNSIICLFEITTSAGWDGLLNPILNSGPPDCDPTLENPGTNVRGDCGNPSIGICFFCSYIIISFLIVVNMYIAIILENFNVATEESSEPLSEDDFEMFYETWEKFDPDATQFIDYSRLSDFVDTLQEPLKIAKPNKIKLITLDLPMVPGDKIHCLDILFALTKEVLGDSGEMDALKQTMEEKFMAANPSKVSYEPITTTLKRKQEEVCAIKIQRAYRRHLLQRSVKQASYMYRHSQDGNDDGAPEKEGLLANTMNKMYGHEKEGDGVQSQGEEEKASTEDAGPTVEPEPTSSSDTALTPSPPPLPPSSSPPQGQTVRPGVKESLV
Sequence of rNaV1.4 (Q00954 19-218, further chain): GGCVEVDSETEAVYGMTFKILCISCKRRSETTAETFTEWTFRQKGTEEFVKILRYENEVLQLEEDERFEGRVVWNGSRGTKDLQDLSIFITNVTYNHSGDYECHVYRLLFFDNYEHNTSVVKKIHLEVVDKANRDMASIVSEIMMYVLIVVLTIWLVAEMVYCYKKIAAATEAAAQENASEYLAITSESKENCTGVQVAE

[5] = biological target: rNaV1.8 (Rattus norvegicus, UniProt Q62968); experiment: Two-electrode voltage-clamp on Xenopus laevis oocytes expressing NaV1.8; conditions: for inhibition at 100 µM: read-out: Maximum % inhibition NaV1.8

| Structure (SMILES) | IC50 [1] | inhibition at 100 µM [1] | IC50 [2] | inhibition at 100 µM [2] | IC50 [3] | inhibition at 100 µM [3] | IC50 [4] | inhibition at 100 µM [4] | IC50 [5] | inhibition at 100 µM [5] | Maximum % inhibition NaV1.4 [4] | Maximum % inhibition NaV1.2 ([1]; peptide at 100 μM, 100 µM) |
| --- | --- | --- | --- | --- | --- | --- | --- | --- | --- | --- | --- | --- |
| C[C@@H]1NC(=O)[C@H](Cc2c[nH]c3ccccc23)NC(=O)[C@H](CCCNC(=N)N)NC(=O)[C@H](CCCNC(=N)N)NC(=O)[C@@H](N)CSSC[C@@H](C(N)=O)NC(=O)[C@H](CCCCN)NC(=O)[C@H](CC(N)=O)NC(=O)[C@H](Cc2c[nH]c3ccccc23)NC(=O)[C@H](CCCNC(=N)N)NC1=O [PnCS1[R9K], CRRWARWNKC ^*] (H-CRRWARWNKC-NH2; disulfide 1-10) | 10.2 ± 4.3 µM | 62% | 6.7 ± 0.8 µM | 72% | 9.2 ± 0.6 µM | 67% | 6.1 ± 2.1 µM | 66% | > 100 µM | 0% |  |  |
| N=C(N)NCCC[C@@H]1NC(=O)[C@H](CC(N)=O)NC(=O)[C@H](Cc2c[nH]c3ccccc23)NC(=O)[C@H](CCCNC(=N)N)NC(=O)[C@H](CCC(=O)O)NC(=O)[C@H](Cc2c[nH]c3ccccc23)NC(=O)[C@H](CCCNC(=N)N)NC(=O)[C@H](CCCNC(=N)N)NC(=O)[C@@H](N)CSSC[C@@H](C(N)=O)NC1=O [PnCS1[A5E], CRRWERWNRC ^*] (H-CRRWERWNRC-NH2; disulfide 1-10) | 1.4 ± 0.2 µM | 81% | 1.8 ± 0.5 µM | 82% | 8.8 ± 3.7 µM | 73% | > 100 µM | 35% | > 100 µM | 0% |  |  |
| C[C@@H]1NC(=O)[C@H](CCCNC(=N)N)NC(=O)[C@H](C)NC(=O)[C@H](Cc2c[nH]c3ccccc23)NC(=O)[C@H](CCCNC(=N)N)NC(=O)[C@H](CCCNC(=N)N)NC(=O)[C@@H](N)CSSC[C@@H](C(N)=O)NC(=O)[C@H](CCCNC(=N)N)NC(=O)[C@H](CC(N)=O)NC1=O [PnCS1[W7A], CRRWARANRC ^*] (H-CRRWARANRC-NH2; disulfide 1-10) | 0.8 ± 0.3 µM | 92% | 11.4 ± 3.6 µM | 57% | 6.8 ± 1.3 µM | 78% | 1.1 ± 0.4 µM | > 95% | > 100 µM | 0% | 96% |  |
| C[C@@H]1NC(=O)[C@H](Cc2c[nH]c3ccccc23)NC(=O)[C@H](CCC(=O)O)NC(=O)[C@H](CCCNC(=N)N)NC(=O)[C@@H](N)CSSC[C@@H](C(N)=O)NC(=O)[C@H](CCCNC(=N)N)NC(=O)[C@H](CC(N)=O)NC(=O)[C@H](Cc2c[nH]c3ccccc23)NC(=O)[C@H](CCCNC(=N)N)NC1=O [PnCS1[R3E], CREWARWNRC ^*] (H-CREWARWNRC-NH2; disulfide 1-10) | > 100 µM | 52% | > 100 µM | 24% | > 100 µM | 21% | > 100 µM | 36% | > 100 µM | 0% |  |  |
| C[C@@H]1NC(=O)[C@H](CC(N)=O)NC(=O)[C@H](Cc2c[nH]c3ccccc23)NC(=O)[C@H](CCCNC(=N)N)NC(=O)[C@H](C)NC(=O)[C@H](Cc2c[nH]c3ccccc23)NC(=O)[C@H](CCCNC(=N)N)NC(=O)[C@H](CCCNC(=N)N)NC(=O)[C@@H](N)CSSC[C@@H](C(N)=O)NC1=O [PnCS1[R9A], CRRWARWNAC ^*] (H-CRRWARWNAC-NH2; disulfide 1-10) | 6.7 ± 1.2 µM | 80% | 0.9 ± 0.4 µM | 79% | 9.2 ± 4.6 µM | 72% | 1.1 ± 0.3 µM | 86% | > 100 µM | 0% |  |  |
| CC(=O)N[C@H]1CSSC[C@@H](C(N)=O)NC(=O)[C@H](CCCNC(=N)N)NC(=O)[C@H](CC(N)=O)NC(=O)[C@H](Cc2c[nH]c3ccccc23)NC(=O)[C@H](CCCNC(=N)N)NC(=O)[C@H](C)NC(=O)[C@H](Cc2c[nH]c3ccccc23)NC(=O)[C@H](CCCNC(=N)N)NC(=O)[C@H](CCCNC(=N)N)NC1=O [PnCS1AcAm, Ac-CRRWARWNRC ^*] (Ac-CRRWARWNRC-NH2; disulfide 1-10) | > 100 µM | 0% | > 100 µM | 0% | > 100 µM | 0% | > 100 µM | 0% | > 100 µM | 0% |  |  |
| C[C@@H]1NC(=O)[C@H](Cc2c[nH]c3ccccc23)NC(=O)[C@H](CCCNC(=N)N)NC(=O)[C@H](C)NC(=O)[C@H](Cc2c[nH]c3ccccc23)NC(=O)[C@H](CCCNC(=N)N)NC(=O)[C@H](CCCNC(=N)N)NC(=O)[C@@H](N)CSSC[C@@H](C(N)=O)NC(=O)[C@H](CCCNC(=N)N)NC1=O [PnCS1[N8A], CRRWARWARC ^*] (H-CRRWARWARC-NH2; disulfide 1-10) | 0.9 ± 0.3 µM | > 95% | 0.8 ± 0.3 µM | 89% | 2.2 ± 0.7 µM | 92% | 0.9 ± 0.4 µM | 94% | > 100 µM | 0% |  | 96% |
| C[C@@H]1NC(=O)[C@H](C)NC(=O)[C@H](CCCNC(=N)N)NC(=O)[C@H](CCCNC(=N)N)NC(=O)[C@@H](N)CSSC[C@@H](C(N)=O)NC(=O)[C@H](CCCNC(=N)N)NC(=O)[C@H](CC(N)=O)NC(=O)[C@H](Cc2c[nH]c3ccccc23)NC(=O)[C@H](CCCNC(=N)N)NC1=O [PnCS1[W4A], CRRAARWNRC ^*] (H-CRRAARWNRC-NH2; disulfide 1-10) | 0.8 ± 0.3 µM | 89% | 1.2 ± 0.3 µM | 76% | 3.4 ± 0.2 µM | 82% | 0.7 ± 0.3 µM | 95% | > 100 µM | 0% |  |  |
| C[C@@H]1NC(=O)[C@H](Cc2c[nH]c3ccccc23)NC(=O)[C@H](CCCNC(=N)N)NC(=O)[C@H](CCCNC(=N)N)NC(=O)[C@@H](N)CSSC[C@@H](C(N)=O)NC(=O)[C@H](CCCNC(=N)N)NC(=O)[C@H](CCCCN)NC(=O)[C@H](Cc2c[nH]c3ccccc23)NC(=O)[C@H](CCCNC(=N)N)NC1=O [PnCS1[N8K], CRRWARWKRC ^*] (H-CRRWARWKRC-NH2; disulfide 1-10) | 4.4 ± 0.8 µM | 81% | 0.5 ± 0.2 µM | 92% | 2.8 ± 0.5 µM | 86% | 0.9 ± 0.3 µM | > 95% | > 100 µM | 0% | 96% |  |
| C[C@@H]1NC(=O)[C@H](Cc2c[nH]c3ccccc23)NC(=O)[C@H](CCCNC(=N)N)NC(=O)[C@H](CCCNC(=N)N)NC(=O)[C@@H](N)CSSC[C@@H](C(N)=O)NC(=O)[C@H](CCCNC(=N)N)NC(=O)[C@H](CC(N)=O)NC(=O)[C@H](Cc2c[nH]c3ccccc23)NC(=O)[C@H](CCCCN)NC1=O [PnCS1[R6K], CRRWAKWNRC ^*] (H-CRRWAKWNRC-NH2; disulfide 1-10) | 8.7 ± 2.4 µM | 67% | 0.9 ± 0.3 µM | 88% | 3.3 ± 1.5 µM | 89% | 0.6 ± 0.4 µM | 94% | > 100 µM | 0% |  |  |
| C[C@@H]1NC(=O)[C@H](Cc2c[nH]c3ccccc23)NC(=O)[C@H](CCCNC(=N)N)NC(=O)[C@H](CCCNC(=N)N)NC(=O)[C@@H](N)CSSC[C@@H](C(N)=O)NC(=O)[C@H](CCCNC(=N)N)NC(=O)[C@H](CCC(=O)O)NC(=O)[C@H](Cc2c[nH]c3ccccc23)NC(=O)[C@H](CCCNC(=N)N)NC1=O [PnCS1[N8E], CRRWARWERC ^*] (H-CRRWARWERC-NH2; disulfide 1-10) | > 100 µM | 47% | > 100 µM | 27% | > 100 µM | 44% | > 100 µM | 53% | > 100 µM | 0% |  |  |
| CC(=O)N[C@H]1CSSC[C@@H](C(=O)O)NC(=O)[C@H](CCCNC(=N)N)NC(=O)[C@H](CC(N)=O)NC(=O)[C@H](Cc2c[nH]c3ccccc23)NC(=O)[C@H](CCCNC(=N)N)NC(=O)[C@H](C)NC(=O)[C@H](Cc2c[nH]c3ccccc23)NC(=O)[C@H](CCCNC(=N)N)NC(=O)[C@H](CCCNC(=N)N)NC1=O [PnCS1Ac, Ac-CRRWARWNRC] (Ac-CRRWARWNRC-OH; disulfide 1-10) |  | 0% |  | 0% |  | 0% |  | 0% |  | 0% |  |  |
| C[C@@H]1NC(=O)[C@H](Cc2c[nH]c3ccccc23)NC(=O)[C@H](CCCNC(=N)N)NC(=O)[C@H](CCCNC(=N)N)NC(=O)[C@@H](N)CSSC[C@@H](C(=O)O)NC(=O)[C@H](CCCNC(=N)N)NC(=O)[C@H](CC(N)=O)NC(=O)[C@H](Cc2c[nH]c3ccccc23)NC(=O)[C@H](CCCNC(=N)N)NC1=O [PnCS1DeAm, CRRWARWNRC] (H-CRRWARWNRC-OH; disulfide 1-10) | > 100 µM | 34% | > 100 µM | 24% | > 100 µM | 10% | > 100 µM | 43% | > 100 µM | 0% |  |  |
